From ChEMBL document CHEMBL1201862, “PubChem BioAssay data set” (2004)
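Five compound concentrations were applied to cells in 96-well plates for 48 hours; endpoints were derived by simple linear interpolation of the resulting dose-response curve. GI50: concentration for 50% inhibition of growth.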 Active and inactive are the calls of the source. No stated cut-off is given here; in the data, active = GI50 up to about 1.1 µM and inactive = higher.

Columns and labels:
Assay in all cases: DTP human tumour cell line panel, 48 h
SNB-75 = tested on: SNB-75
COLO 205 = tested on: COLO 205
SF-268 = tested on: SF-268
SK-MEL-2 = tested on: SK-MEL-2
CAKI-1 = tested on: CAKI-1
SN12C = tested on: SN12C
OVCAR-5 = tested on: OVCAR-5
SF-295 = tested on: SF-295
NCI-H23 = tested on: NCI-H23
MOLT-4 = tested on: MOLT-4
M14 = tested on: M14
HOP-92 = tested on: HOP-92
SNB-19 = tested on: SNB-19
NCI-H522 = tested on: NCI-H522
K562 = tested on: K562
SW-620 = tested on: SW-620
SF-539 = tested on: SF-539
Malme-3M = tested on: Malme-3M
NCI-H226 = tested on: NCI-H226
HOP-62 = tested on: HOP-62

SMILES | GI50 (SNB-75) | GI50 (COLO 205) | GI50 (SF-268) | GI50 (SK-MEL-2) | GI50 (CAKI-1) | GI50 (SN12C) | GI50 (OVCAR-5) | GI50 (SF-295) | GI50 (NCI-H23) | GI50 (MOLT-4) | GI50 (M14) | GI50 (HOP-92) | GI50 (SNB-19) | GI50 (NCI-H522) | GI50 (K562) | GI50 (SW-620) | GI50 (SF-539) | GI50 (Malme-3M) | GI50 (NCI-H226) | GI50 (HOP-62)
CO[C@H]1C=C[C@@]23c4cc5c(cc4CO[C@]2(O)CN(C)[C@H]3C1)OCO5 | > 100 µM (inactive) | > 100 µM (inactive) | > 100 µM (inactive) | > 100 µM (inactive) | > 100 µM (inactive) | > 100 µM (inactive) | > 100 µM (inactive) | > 100 µM (inactive) | > 100 µM (inactive) | > 100 µM (inactive) | > 100 µM (inactive) | > 100 µM (inactive) | > 100 µM (inactive) | > 100 µM (inactive) | > 100 µM (inactive) | > 100 µM (inactive) | > 100 µM (inactive) | > 100 µM (inactive) | > 100 µM (inactive) | 
CCCCC1(N=[N+]=[N-])C(=O)c2cccc3c2N(CCC3)C1=O (stereo unspecified) | > 100 µM (inactive) | > 100 µM (inactive) | > 100 µM (inactive) | > 100 µM (inactive) | > 100 µM (inactive) | > 100 µM (inactive) | > 100 µM (inactive) | > 100 µM (inactive) | > 100 µM (inactive) | > 100 µM (inactive) | > 100 µM (inactive) | > 100 µM (inactive) | > 100 µM (inactive) | > 100 µM (inactive) | > 100 µM (inactive) | > 100 µM (inactive) | > 100 µM (inactive) | > 100 µM (inactive) | > 100 µM (inactive) | > 100 µM (inactive)
O=C(NC1C/C(=N/O)c2c(Br)sc(Br)c21)C(F)(F)F (stereo unspecified) | 29.5 µM (inactive) | 51.8 µM (inactive) | 23.6 µM (inactive) | 11.4 µM (inactive) | 13.8 µM (inactive) | 21.2 µM (inactive) | > 100 µM (inactive) | 31 µM (inactive) | 16 µM (inactive) | 26.3 µM (inactive) | 36.2 µM (inactive) | 3.65 µM (inactive) | 41.7 µM (inactive) | 26.1 µM (inactive) | 20 µM (inactive) | 30.2 µM (inactive) | 17.3 µM (inactive) | 45.9 µM (inactive) | 18.4 µM (inactive) | 
CN(C)c1ccc(/C=C2/SC(=S)NC2=O)cc1 | 95.3 µM (inactive) | > 100 µM (inactive) | > 100 µM (inactive) | > 100 µM (inactive) | > 100 µM (inactive) | > 100 µM (inactive) | 21.9 µM (inactive) | > 100 µM (inactive) | > 100 µM (inactive) | > 100 µM (inactive) | > 100 µM (inactive) | > 100 µM (inactive) | > 100 µM (inactive) | > 100 µM (inactive) | > 100 µM (inactive) | > 100 µM (inactive) | > 100 µM (inactive) | > 100 µM (inactive) | > 100 µM (inactive) | 52.2 µM (inactive)
COCCO [2-METHOXYETHANOL] | > 64.6 µM (inactive) | > 100 µM (inactive) | > 100 µM (inactive) | > 100 µM (inactive) | > 100 µM (inactive) | > 100 µM (inactive) | > 100 µM (inactive) | > 100 µM (inactive) | > 100 µM (inactive) | > 100 µM (inactive) |  | > 100 µM (inactive) | > 100 µM (inactive) | > 100 µM (inactive) | > 100 µM (inactive) | > 100 µM (inactive) | > 100 µM (inactive) | > 100 µM (inactive) | > 100 µM (inactive) | > 78.2 µM (inactive)
CCC1(OC(=O)CN)C(=O)OCc2c1cc1n(c2=O)Cc2cc3ccccc3nc2-1 (stereo unspecified) | 0.0213 µM (active) | 0.0491 µM (active) | 0.01 µM (active) | 0.0794 µM (active) | 0.01 µM (active) | 0.0113 µM (active) | 0.0457 µM (active) | 0.01 µM (active) | 0.01 µM (active) | 0.01 µM (active) | 0.01 µM (active) | 0.547 µM (active) | 0.01 µM (active) | 0.0188 µM (active) | 0.0334 µM (active) | 0.067 µM (active) | 0.01 µM (active) | 0.151 µM (active) | 0.0134 µM (active) | 0.01 µM (active)
CCCS(=O)(=O)O | > 100 µM (inactive) | > 100 µM (inactive) | > 100 µM (inactive) | > 100 µM (inactive) | > 100 µM (inactive) |  | > 100 µM (inactive) | > 100 µM (inactive) | > 100 µM (inactive) | > 100 µM (inactive) | > 100 µM (inactive) | > 100 µM (inactive) | > 100 µM (inactive) | > 100 µM (inactive) | > 100 µM (inactive) | > 100 µM (inactive) | > 100 µM (inactive) | > 100 µM (inactive) | > 100 µM (inactive) | > 100 µM (inactive)
